Legend:
Experiment in all cases: combination Emax (second highest fraction inhibited in the dose matrix, 72 h); higher = more inhibition; extreme values may be limits of the assay
[1] = tested on: COLO-668 (Small Cell Lung Carcinoma)
Summary of the method: (§1)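 After 24 hours at 37°C and 5% CO2 in 1536-well plates, cells in DMEM/F12 or RPMI plus 10% FBS received two-drug dose matrices for 72 hours. Viability came from CellTiter-Glo 2.0 luminescence and was scaled as inhibition, anchored at 0 by vehicle wells and at 1 by blank wells. Combination Emax is taken as the second-highest inhibition in the matrix, and Bliss excess as the observed combination effect less EA + EB − EA·EB, with EA and EB the single-agent effects.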

[2] = tested on: OE33 (Esophageal Adenocarcinoma)
Summary of the method: as §1

[3] = tested on: ML-2 (Acute Myeloid Leukemia)
Summary of the method: as §1

[4] = tested on: ALL-SIL (T-Lymphoblastic Leukemia)
Summary of the method: as §1

[5] = tested on: EFO-21 (Ovarian Carcinoma)
Summary of the method: as §1

[6] = tested on: SW982 (Other Solid Carcinomas)
Summary of the method: as §1

[7] = tested on: CADO-ES1 (Ewing's Sarcoma)
Summary of the method: as §1

[8] = tested on: Hey (Ovarian Carcinoma)
Summary of the method: as §1

[9] = tested on: EJM (Plasma Cell Myeloma)
Summary of the method: as §1

[10] = tested on: KMRC-1 (Kidney Carcinoma)
Summary of the method: as §1

[11] = tested on: NCI-H1355 (Lung Adenocarcinoma)
Summary of the method: as §1

[12] = tested on: NCI-H522 (Lung Adenocarcinoma)
Summary of the method: as §1

[13] = tested on: LC-1-sq (Squamous Cell Lung Carcinoma)
Summary of the method: as §1

[14] = tested on: G-401 (Other Solid Carcinomas)
Summary of the method: as §1

[15] = tested on: Mo-T (Other Blood Carcinomas)
Summary of the method: as §1

[16] = tested on: DU-145 (Prostate Carcinoma)
Summary of the method: as §1

[17] = tested on: SKN (Other Solid Carcinomas)
Summary of the method: as §1

[18] = tested on: Ca-Ski (Cervical Carcinoma)
Summary of the method: as §1

[19] = tested on: SK-N-AS (Neuroblastoma)
Summary of the method: as §1

[20] = tested on: HCC2998 (Colorectal Carcinoma)
Summary of the method: as §1

SMILES: CC(=O)c1c(C)c2cnc(Nc3ccc(N4CCNCC4)cn3)nc2n(C2CCCC2)c1=O [Palbociclib] + CC1(C)CCC(CN2CCN(c3ccc(C(=O)NS(=O)(=O)c4ccc(NCC5CCOCC5)c([N+](=O)[O-])c4)c(Oc4cnc5[nH]ccc5c4)c3)CC2)=C(c2ccc(Cl)cc2)C1 [Venetoclax] (first compound max 10 µM, 7x7, partner max 1 µM)
- combination Emax [1]: 0.114
- combination Emax [2]: 0.121
- combination Emax [3]: 0.949
- combination Emax [4]: 0.76
- combination Emax [5]: 0.105
- combination Emax [6]: 0.57
- combination Emax [7]: 0.678
- combination Emax [8]: 0.355
- combination Emax [9]: 0.159
- combination Emax [10]: 0.162
- combination Emax [11]: 0.242
- combination Emax [12]: 0.127
- combination Emax [13]: 0.166
- combination Emax [14]: 0.849
- combination Emax [15]: 0.297
- combination Emax [16]: 0.0454
- combination Emax [17]: 0.342
- combination Emax [18]: 0.131
- combination Emax [19]: 0.125
- combination Emax [20]: 0.416

SMILES: CC(=O)c1c(C)c2cnc(Nc3ccc(N4CCNCC4)cn3)nc2n(C2CCCC2)c1=O [Palbociclib] + Cc1c2c(nn1C)CSCc1cc(n(C)n1)CSc1cc(c3ccccc3c1)OCCCc1c(C(=O)O)n(C)c3c-2c(Cl)ccc13 [AZD5991] (first compound max 10 µM, 7x7, partner max 1 µM)
- combination Emax [1]: 0.304
- combination Emax [2]: 0.275
- combination Emax [3]: 1
- combination Emax [4]: 0.446
- combination Emax [5]: 0.256
- combination Emax [6]: 0.528
- combination Emax [7]: 0.46
- combination Emax [8]: 0.431
- combination Emax [9]: 0.443
- combination Emax [10]: 0.322
- combination Emax [11]: 0.345
- combination Emax [12]: 0.57
- combination Emax [13]: 0.241
- combination Emax [14]: 0.854
- combination Emax [15]: 0.344
- combination Emax [16]: 0.107
- combination Emax [17]: 0.385
- combination Emax [18]: 0.342
- combination Emax [19]: 0.461
- combination Emax [20]: 0.905

SMILES: CC(=O)c1c(C)c2cnc(Nc3ccc(N4CCNCC4)cn3)nc2n(C2CCCC2)c1=O [Palbociclib] + Cn1cnc2c(F)c(Nc3ccc(Br)cc3Cl)c(C(=O)NOCCO)cc21 [Selumetinib] (first compound max 10 µM, 7x7, partner max 10 µM)
- combination Emax [1]: 0.363
- combination Emax [2]: 0.259
- combination Emax [3]: 0.869
- combination Emax [4]: 0.38
- combination Emax [5]: 0.245
- combination Emax [6]: 0.579
- combination Emax [7]: 0.265
- combination Emax [8]: 0.623
- combination Emax [9]: 0.182
- combination Emax [10]: 0.218
- combination Emax [11]: 0.325
- combination Emax [12]: 0.127
- combination Emax [13]: 0.235
- combination Emax [14]: 0.859
- combination Emax [15]: 0.329
- combination Emax [16]: 0.12
- combination Emax [17]: 0.349
- combination Emax [18]: 0.301
- combination Emax [19]: 0.577
- combination Emax [20]: 0.781

SMILES: COc1cccc(OCCCN)c1-c1cc(Nc2cnc(C#N)cn2)n[nH]1 [Prexasertib] + C=CCn1c(=O)c2cnc(Nc3ccc(N4CCN(C)CC4)cc3)nc2n1-c1cccc(C(C)(C)O)n1 [AZD1775] (first compound max 1 µM, partner max 1 µM)
- combination Emax [1]: 0.881
- combination Emax [2]: 0.829
- combination Emax [3]: 1
- combination Emax [4]: 1
- combination Emax [5]: 0.742
- combination Emax [6]: 0.825
- combination Emax [7]: 0.946
- combination Emax [8]: 0.837
- combination Emax [9]: 0.954
- combination Emax [10]: 0.627
- combination Emax [11]: 0.756
- combination Emax [12]: 0.676
- combination Emax [13]: 0.986
- combination Emax [14]: 0.905
- combination Emax [15]: 0.539
- combination Emax [16]: 0.691
- combination Emax [17]: 0.488
- combination Emax [18]: 0.874
- combination Emax [19]: 1
- combination Emax [20]: 0.984

SMILES: COc1cccc(OCCCN)c1-c1cc(Nc2cnc(C#N)cn2)n[nH]1 [Prexasertib] + CCc1c2c(nc3ccc(O)cc13)-c1cc3c(c(=O)n1C2)COC(=O)[C@]3(O)CC [SN-38] (first compound max 1 µM, 7x7, partner max 0.3 µM)
- combination Emax [1]: 0.973
- combination Emax [2]: 0.811
- combination Emax [3]: 1
- combination Emax [4]: 1
- combination Emax [5]: 0.671
- combination Emax [6]: 0.796
- combination Emax [7]: 0.996
- combination Emax [8]: 0.843
- combination Emax [9]: 0.952
- combination Emax [10]: 0.455
- combination Emax [11]: 0.756
- combination Emax [12]: 0.8
- combination Emax [13]: 0.889
- combination Emax [14]: 0.929
- combination Emax [15]: 0.698
- combination Emax [16]: 0.807
- combination Emax [17]: 0.803
- combination Emax [18]: 0.983
- combination Emax [19]: 0.997
- combination Emax [20]: 1

SMILES: COc1cccc(OCCCN)c1-c1cc(Nc2cnc(C#N)cn2)n[nH]1 [Prexasertib] + CN(C)CCCOc1ccc(-c2ccc3ncc4c(c3c2)n(C2CCOCC2)c(=O)n4C)cn1 [AZD0156] (first compound max 1 µM, 7x7, partner max 1 µM)
- combination Emax [1]: 0.758
- combination Emax [2]: 0.826
- combination Emax [3]: 1
- combination Emax [4]: 0.958
- combination Emax [5]: 0.731
- combination Emax [6]: 0.759
- combination Emax [7]: 0.956
- combination Emax [8]: 0.82
- combination Emax [9]: 0.93
- combination Emax [10]: 0.558
- combination Emax [11]: 0.709
- combination Emax [12]: 0.385
- combination Emax [13]: 0.953
- combination Emax [14]: 0.626
- combination Emax [15]: 0.392
- combination Emax [16]: 0.624
- combination Emax [17]: 0.421
- combination Emax [18]: 0.741
- combination Emax [19]: 1
- combination Emax [20]: 0.969

Source: the supplement of paper PMC11061612
